{"source": "paper PMC7413254", "about": "(Nature Communications, 2020)", "key": {"[1]": {"tested_on": "non-expressing oocytes", "assay": "cells", "format": "cell-based, Xenopus laevis", "conditions": "Xenopus laevis, Oocyte", "procedure,_shortened": "(§1)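 Oocytes expressing PfCRT isoforms, or non-expressing controls, were incubated 1.5 h at 27.5 °C in ND96 buffer pH 5.5 (96 mM NaCl, 2 mM KCl, 1 mM MgCl2, 1.8 mM CaCl2, 10 mM MES, 10 mM Tris-base), measuring uptake from acidic medium into cytosol. Oocytes were washed ice-cold, SDS-lysed and counted by scintillation.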"}, "[2]": {"molecular_target": "T1, PfCRT^3D7 (Plasmodium falciparum, UniProt Q8IBZ9)", "T1 sequence (Q8IBZ9 59-398)": "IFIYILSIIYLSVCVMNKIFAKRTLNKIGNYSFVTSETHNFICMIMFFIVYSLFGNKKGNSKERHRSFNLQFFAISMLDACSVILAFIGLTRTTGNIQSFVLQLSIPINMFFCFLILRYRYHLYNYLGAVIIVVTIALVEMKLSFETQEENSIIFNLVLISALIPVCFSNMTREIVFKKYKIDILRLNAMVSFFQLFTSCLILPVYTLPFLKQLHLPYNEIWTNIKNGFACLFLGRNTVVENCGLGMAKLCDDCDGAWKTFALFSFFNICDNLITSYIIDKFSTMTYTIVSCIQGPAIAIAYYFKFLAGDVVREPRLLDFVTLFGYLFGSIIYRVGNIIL", "assay": "cell-based", "format": "cell-based", "procedure,_shortened": "as §1"}, "[3]": {"molecular_target": "T2, PfCRT^Dd2 (Plasmodium falciparum, UniProt Q9N623, A220S/I356T/K76T/M74I/N326S/N75E/Q271E/R371I)", "T2 sequence (Q9N623 whole entry A220S/I356T/K76T/M74I/N326S/N75E/Q271E/R371I)": "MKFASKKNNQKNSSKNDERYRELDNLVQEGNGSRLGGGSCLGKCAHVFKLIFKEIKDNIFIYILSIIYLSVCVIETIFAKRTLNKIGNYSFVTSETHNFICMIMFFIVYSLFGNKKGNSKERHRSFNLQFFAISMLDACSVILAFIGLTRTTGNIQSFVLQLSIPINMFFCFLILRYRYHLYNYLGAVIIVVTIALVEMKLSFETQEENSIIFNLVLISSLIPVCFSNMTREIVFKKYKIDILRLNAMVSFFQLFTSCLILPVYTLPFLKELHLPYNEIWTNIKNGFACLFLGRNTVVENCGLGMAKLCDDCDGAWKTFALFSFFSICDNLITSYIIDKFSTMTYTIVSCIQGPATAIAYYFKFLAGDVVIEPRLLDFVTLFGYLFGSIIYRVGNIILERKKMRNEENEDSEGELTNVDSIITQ", "assay": "[3H]CQ uptake into Xenopus oocytes, cis-inhibition by unlabelled solute", "format": "cell-based", "procedure,_shortened": "as §1"}, "[4]": {"molecular_target": "T3, PfCRT^Ecu1110 (Plasmodium falciparum, UniProt Q9N623, A220S/I356L/K76T/N326D)", "T3 sequence (Q9N623 whole entry A220S/I356L/K76T/N326D)": "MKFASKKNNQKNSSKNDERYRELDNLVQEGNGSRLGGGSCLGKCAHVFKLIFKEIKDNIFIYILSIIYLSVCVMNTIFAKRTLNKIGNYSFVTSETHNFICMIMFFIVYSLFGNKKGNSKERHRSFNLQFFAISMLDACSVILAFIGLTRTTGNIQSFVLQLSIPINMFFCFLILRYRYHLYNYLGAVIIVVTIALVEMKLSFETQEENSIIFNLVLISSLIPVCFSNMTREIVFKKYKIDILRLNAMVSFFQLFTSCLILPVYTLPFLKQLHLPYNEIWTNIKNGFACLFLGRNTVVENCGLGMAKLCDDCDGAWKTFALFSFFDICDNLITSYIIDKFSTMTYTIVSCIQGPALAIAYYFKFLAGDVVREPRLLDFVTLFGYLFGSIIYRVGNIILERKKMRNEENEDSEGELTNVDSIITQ", "assay": "[3H]CQ uptake into Xenopus oocytes, cis-inhibition by unlabelled solute", "format": "cell-based", "procedure,_shortened": "as §1"}, "[5]": {"tested_on": "non-expressing oocytes", "format": "cell-based, Xenopus laevis", "procedure,_shortened": "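Oocytes (ten per treatment, ≥4 independent frogs/days) were preloaded by injecting VF-6 in 25 nL ND96 at pH 5.0, 5.5, 6.0 or 7.0, or Na^+-free choline buffer, then uptake run 1.5 h, 27.5 °C, ND96 pH 5.5 by default. Internal concentrations assumed ~400 nL oocyte volume.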"}, "[6]": {"molecular_target": "T1, PfCRT^3D7", "assay": "cell-based", "format": "cell-based", "procedure,_shortened": "(§2)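 Transport measured in Xenopus oocytes expressing the transporters, 1.5 h at 27.5 °C in ND96 pH 5.5 unless noted. For trans-stimulation, VF-6 injected in 25 nL ND96 at pH 5.0–7.0 or Na^+-free (choline) buffer; intracellular levels based on ~400 nL oocyte volume. Ten oocytes per treatment, ≥4 experiments.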", "remark": "listed apart in the source"}, "[7]": {"molecular_target": "T2, PfCRT^Dd2", "assay": "cell-based", "format": "cell-based", "conditions": "[…]", "procedure,_shortened": "as §2"}, "[8]": {"molecular_target": "T3, PfCRT^Ecu1110", "assay": "cell-based", "format": "cell-based", "conditions": "[…]", "procedure,_shortened": "as §2"}, "[9]": {"molecular_target": "T4, PfNT1 (Plasmodium falciparum, UniProt Q8IDM6)", "T4 construct": "expressed in transfected cells; host or cells: Xenopus laevis oocytes (stage V-VI), cRNA-injected", "T4 sequence (Q8IDM6 whole entry)": "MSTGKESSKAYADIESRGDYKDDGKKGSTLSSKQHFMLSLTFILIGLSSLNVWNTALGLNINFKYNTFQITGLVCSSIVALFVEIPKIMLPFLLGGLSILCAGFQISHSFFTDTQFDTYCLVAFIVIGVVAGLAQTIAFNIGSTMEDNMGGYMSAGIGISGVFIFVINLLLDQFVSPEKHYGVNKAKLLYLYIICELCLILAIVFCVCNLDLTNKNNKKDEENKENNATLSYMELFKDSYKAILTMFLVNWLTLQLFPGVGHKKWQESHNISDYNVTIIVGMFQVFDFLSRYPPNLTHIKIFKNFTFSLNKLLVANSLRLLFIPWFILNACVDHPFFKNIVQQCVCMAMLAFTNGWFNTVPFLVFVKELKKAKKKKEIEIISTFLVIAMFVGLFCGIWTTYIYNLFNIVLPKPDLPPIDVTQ", "assay": "cell-based", "format": "cell-based", "conditions": "[…]", "procedure,_shortened": "as §2"}, "[10]": {"tested_on": "PfCRT", "assay": "Influx of VF-6 via PfCRT into the oocyte, solutes tested as potential co-substrates", "format": "cell-based, Plasmodium falciparum", "parameters": "key: X: Compounds that have been tested as potential co-substrates but are not required for influx of VF-6 via PfCRT into the oocyte", "conditions": "X marks the solute"}, "[11]": {"tested_on": "PfCRT", "assay": "Potential co-substrates tested for influx of VF-6 via PfCRT into the oocyte", "format": "cell-based, Plasmodium falciparum", "parameters": "key: X: Compounds that have been tested as potential co-substrates but are not required for influx of VF-6 via PfCRT into the oocyte"}, "[12]": {"conditions": "read-out: Uptake of [3H]CQ (% PfCRTDd2 control), cis-inhibition, non-expressing oocytes, SEM"}, "[13]": {"conditions": "read-out: Uptake of [3H]CQ (% non-expressing oocyte control), cis-inhibition"}, "[14]": {"conditions": "read-out: Uptake of [3H]CQ (% PfCRT3D7 control), cis-inhibition"}, "[15]": {"conditions": "read-out: Uptake of [3H]CQ (% PfCRTDd2 control), cis-inhibition, PfCRT3D7, SEM"}, "[16]": {"conditions": "read-out: PfCRT-mediated [3H]CQ transport, cis-inhibition (% PfCRTDd2 control)"}, "[17]": {"conditions": "read-out: Uptake of [3H]CQ (% PfCRTDd2 control), cis-inhibition, PfCRTDd2, SEM"}, "[18]": {"conditions": "read-out: PfCRT-mediated [3H]CQ transport, cis-inhibition (% PfCRTEcu1110 control)"}, "[19]": {"conditions": "read-out: Uptake of [3H]CQ (% PfCRTDd2 control), cis-inhibition, PfCRTEcu1110, SEM"}, "[20]": {"conditions": "read-out: Uptake of [3H]CQ (% PfCRTEcu1110 control), cis-inhibition"}, "[21]": {"conditions": "read-out: [3H]CQ transport (% PfCRTEcu1110 control), cis-inhibition, PfCRTEcu1110, SEM"}, "[22]": {"conditions": "read-out: PfCRT-mediated [3H]CQ transport, trans-stimulation (% PfCRT3D7 control)"}, "[23]": {"conditions": "read-out: Uptake of [3H]CQ (% PfCRT3D7 control), trans-stimulation"}, "[24]": {"conditions": "read-out: Uptake of [3H]CQ (% PfCRTDd2 control), trans-stimulation, PfCRT3D7, SEM"}, "[25]": {"conditions": "read-out: Uptake of [3H]CQ (% PfCRTDd2 control), trans-stimulation, PfNT1, SEM"}, "[26]": {"conditions": "read-out: Uptake of [3H]CQ (% PfNT1 control), trans-stimulation"}}, "note": "Where “and” joins values, the source holds several entries; their conditions need not be identical. Equal values may be shown once. Read-outs that look alike come from different tables or passages of the source."}
{"compound": "CSCC[C@H](N)C(=O)O", "note": "[L-methionine]", "values": [{"measurement": "inhibition at 500 µM", "setting": "[1]; [12]", "value": "2.7 ± 0.03", "unit": "%"}, {"measurement": "inhibition at 1000 µM", "setting": "[1]; [12]", "value": "2.5 ± 0.01", "unit": "%"}, {"measurement": "inhibition at 2000 µM", "setting": "[1]; [12]", "value": "2.9 ± 0.04", "unit": "%"}, {"measurement": "inhibition at 500 µM", "setting": "[1]; [13]", "value": "99 ± 3.6", "unit": "%"}, {"measurement": "inhibition at 1000 µM", "setting": "[1]; [13]", "value": "99 ± 3.5", "unit": "%"}, {"measurement": "inhibition at 2000 µM", "setting": "[1]; [13]", "value": "101 ± 4.6", "unit": "%"}, {"measurement": "inhibition at 500 µM", "setting": "[2]; [14]", "value": "100 ± 3.6", "unit": "%"}, {"measurement": "inhibition at 1000 µM", "setting": "[2]; [14]", "value": "100 ± 3.3", "unit": "%"}, {"measurement": "inhibition at 2000 µM", "setting": "[2]; [14]", "value": "102 ± 2.5", "unit": "%"}, {"measurement": "inhibition at 500 µM", "setting": "[2]; [15]", "value": "2.4 ± 0.07", "unit": "%"}, {"measurement": "inhibition at 1000 µM", "setting": "[2]; [15]", "value": "2.2 ± 0.06", "unit": "%"}, {"measurement": "inhibition at 2000 µM", "setting": "[2]; [15]", "value": "3.4 ± 0.07", "unit": "%"}, {"measurement": "inhibition at 500 µM", "setting": "[3]; [16]", "value": "96 ± 3.6", "unit": "%"}, {"measurement": "inhibition at 2000 µM", "setting": "[3]; [16]", "value": "95 ± 5.1", "unit": "%"}, {"measurement": "inhibition at 500 µM", "setting": "[3]; [17]", "value": "98 ± 2.4", "unit": "%"}, {"measurement": "inhibition at 1000 µM", "setting": "[3]; [17]", "value": "100 ± 2.1", "unit": "%"}, {"measurement": "inhibition at 2000 µM", "setting": "[3]; [17]", "value": "97 ± 2.4", "unit": "%"}, {"measurement": "inhibition at 500 µM", "setting": "[4]; [18]", "value": "94 ± 4.4", "unit": "%"}, {"measurement": "inhibition at 1000 µM", "setting": "[4]; [18]", "value": "95 ± 3.1", "unit": "%"}, {"measurement": "inhibition at 2000 µM", "setting": "[4]; [18]", "value": "98 ± 1.5", "unit": "%"}, {"measurement": "inhibition at 500 µM", "setting": "[4]; [19]", "value": "31 ± 1.5", "unit": "%"}, {"measurement": "inhibition at 1000 µM", "setting": "[4]; [19]", "value": "32 ± 1.1", "unit": "%"}, {"measurement": "inhibition at 2000 µM", "setting": "[4]; [19]", "value": "33 ± 1.2", "unit": "%"}, {"measurement": "inhibition at 500 µM", "setting": "[4]; [20]", "value": "96 ± 2.5", "unit": "%"}, {"measurement": "inhibition at 1000 µM", "setting": "[4]; [20]", "value": "97 ± 5.3", "unit": "%"}, {"measurement": "inhibition at 2000 µM", "setting": "[4]; [20]", "value": "100 ± 2.5", "unit": "%"}, {"measurement": "inhibition at 500 µM", "setting": "[4]; [21]", "value": "28 ± 0.5", "unit": "%"}, {"measurement": "inhibition at 1000 µM", "setting": "[4]; [21]", "value": "29 ± 0.5", "unit": "%"}, {"measurement": "inhibition at 2000 µM", "setting": "[4]; [21]", "value": "30 ± 0.5", "unit": "%"}, {"measurement": "Uptake of [3H]CQ (% non-expressing oocyte control), trans-stimulation", "setting": "[5]", "value": "99 ± 3.8 % non-expressing oocyte control and 98 ± 4.2 % non-expressing oocyte control"}, {"measurement": "Uptake of [3H]CQ (% PfCRTDd2 control), trans-stimulation, non-expressing oocytes", "setting": "[5]; SEM", "value": "2.4 ± 0.02 % PfCRTDd2 control and 2.8 ± 0.03 % PfCRTDd2 control"}, {"measurement": "[3H]CQ transport (% PfCRT3D7 control), trans-stimulation, PfCRT3D7", "setting": "[6]; SEM", "value": "0.3 ± 0.03", "unit": "% PfCRT3D7 control"}, {"measurement": "activity at 5000 µM", "setting": "[6]; [22]", "value": "97 ± 2.1", "unit": "%"}, {"measurement": "activity at 45000 µM", "setting": "[6]; [22]", "value": "97 ± 2.7", "unit": "%"}, {"measurement": "activity at 5000 µM", "setting": "[6]; [23]", "value": "99 ± 3.6", "unit": "%"}, {"measurement": "activity at 45000 µM", "setting": "[6]; [23]", "value": "99 ± 3.1", "unit": "%"}, {"measurement": "activity at 5000 µM", "setting": "[6]; [24]", "value": "3.3 ± 0.03", "unit": "%"}, {"measurement": "activity at 45000 µM", "setting": "[6]; [24]", "value": "3.3 ± 0.02", "unit": "%"}, {"measurement": "activity at 5000 µM", "setting": "[7]; pH 5.5, read-out: Uptake of [3H]CQ (% PfCRTDd2 control), trans-stimulation, PfCRTDd2, total [3H]CQ transport, [test solute]i = 5 mM (intracellular), mean ± SEM, SEM", "value": "100 ± 3.2", "unit": "%"}, {"measurement": "activity at 5000 µM", "setting": "[7]; pH 5.5, read-out: Uptake of [3H]CQ (% PfCRTDd2 control), trans-stimulation, PfCRTDd2 oocytes, [test solute]i = 5 mM, total [3H]CQ transport, normalised to the oocyte type control", "value": "100 ± 3.2", "unit": "%"}, {"measurement": "activity at 45000 µM", "setting": "[7]; pH 5.5, read-out: Uptake of [3H]CQ (% PfCRTDd2 control), trans-stimulation, PfCRTDd2 oocytes, [test solute]i = 45 mM (30 mM for some solutes due to solubility), total [3H]CQ transport, normalised to the oocyte type control", "value": "99 ± 1", "unit": "%"}, {"measurement": "activity at 5000 µM", "setting": "[8]; pH 5.5, read-out: Uptake of [3H]CQ (% PfCRTEcu1110 control), trans-stimulation, PfCRTEcu1110 oocytes, [test solute]i = 5 mM, total [3H]CQ transport, normalised to the oocyte type control", "value": "98 ± 2.1", "unit": "%"}, {"measurement": "activity at 45000 µM", "setting": "[8]; pH 5.5, read-out: Uptake of [3H]CQ (% PfCRTEcu1110 control), trans-stimulation, PfCRTEcu1110 oocytes, [test solute]i = 45 mM (30 mM for some solutes due to solubility), total [3H]CQ transport, normalised to the oocyte type control", "value": "100 ± 3.2", "unit": "%"}, {"measurement": "activity at 5000 µM", "setting": "[8]; read-out: Uptake of [3H]CQ (% PfCRTDd2 control), trans-stimulation, PfCRTEcu1110, total [3H]CQ transport, [test solute]i = 5 mM (intracellular), mean ± SEM, SEM", "value": "35 ± 1.3", "unit": "%"}, {"measurement": "activity at 45000 µM", "setting": "[8]; read-out: Uptake of [3H]CQ (% PfCRTDd2 control), trans-stimulation, PfCRTEcu1110, total [3H]CQ transport, [test solute]i = 45 mM (intracellular; 30 mM for some solutes due to solubility), mean ± SEM, SEM", "value": "36 ± 2.2", "unit": "%"}, {"measurement": "activity at 5000 µM", "setting": "[9]; [25]", "value": "2.2 ± 0.06", "unit": "%"}, {"measurement": "activity at 45000 µM", "setting": "[9]; [25]", "value": "2.7 ± 0.04", "unit": "%"}, {"measurement": "activity at 5000 µM", "setting": "[9]; [26]", "value": "100 ± 2.5", "unit": "%"}, {"measurement": "activity at 45000 µM", "setting": "[9]; [26]", "value": "99 ± 2.6", "unit": "%"}, {"measurement": "Compounds that have been tested as potential co-substrates but are not required for influx of VF-6 via PfCRT into the oocyte", "setting": "[10]", "value": "X"}, {"measurement": "Tested as potential co-substrate but not required for influx of VF-6 via PfCRT into the oocyte", "setting": "[11]", "value": "X"}]}
